{"source": "ChEMBL document CHEMBL4411321", "about": "“Discovery of Potent, Selective, and Orally Bioavailable Estrogen-Related Receptor-γ Inverse Agonists To Restore the Sodium Iodide Symporter Function in Anaplastic Thyroid Cancer” (J Med Chem, 2019)", "key": {"CYP2C9": {"biological_target": "CYP2C9 (Homo sapiens, UniProt P11712)", "sequence (P11712 whole entry)": "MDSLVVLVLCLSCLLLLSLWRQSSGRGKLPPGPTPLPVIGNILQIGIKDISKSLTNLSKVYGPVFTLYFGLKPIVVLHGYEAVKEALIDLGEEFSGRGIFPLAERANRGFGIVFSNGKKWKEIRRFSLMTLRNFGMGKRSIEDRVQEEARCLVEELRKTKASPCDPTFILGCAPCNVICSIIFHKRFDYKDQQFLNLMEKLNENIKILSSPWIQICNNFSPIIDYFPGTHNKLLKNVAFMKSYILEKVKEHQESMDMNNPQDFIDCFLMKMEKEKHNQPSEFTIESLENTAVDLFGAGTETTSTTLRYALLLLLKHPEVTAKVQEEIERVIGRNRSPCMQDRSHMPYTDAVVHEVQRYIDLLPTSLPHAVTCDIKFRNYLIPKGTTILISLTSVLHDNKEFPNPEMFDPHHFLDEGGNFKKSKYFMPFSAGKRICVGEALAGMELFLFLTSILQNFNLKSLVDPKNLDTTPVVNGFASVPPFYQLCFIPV", "assay": "Inhibition of CYP2C9 in human liver microsomes assessed as reduction in tolbutamide 4-hydroxylase activity at 10 uM preincubated for 5 mins followed by NADPH addition and measured after 15 mins by LC-MS/MS analysis relative to control", "type": "ADME", "details": "probe tolbutamide (4-hydroxylation)"}, "[1]": {"biological_target": "T1, Estrogen-related receptor gamma (Homo sapiens) (UniProt P62508)", "T1 sequence (whole entry)": "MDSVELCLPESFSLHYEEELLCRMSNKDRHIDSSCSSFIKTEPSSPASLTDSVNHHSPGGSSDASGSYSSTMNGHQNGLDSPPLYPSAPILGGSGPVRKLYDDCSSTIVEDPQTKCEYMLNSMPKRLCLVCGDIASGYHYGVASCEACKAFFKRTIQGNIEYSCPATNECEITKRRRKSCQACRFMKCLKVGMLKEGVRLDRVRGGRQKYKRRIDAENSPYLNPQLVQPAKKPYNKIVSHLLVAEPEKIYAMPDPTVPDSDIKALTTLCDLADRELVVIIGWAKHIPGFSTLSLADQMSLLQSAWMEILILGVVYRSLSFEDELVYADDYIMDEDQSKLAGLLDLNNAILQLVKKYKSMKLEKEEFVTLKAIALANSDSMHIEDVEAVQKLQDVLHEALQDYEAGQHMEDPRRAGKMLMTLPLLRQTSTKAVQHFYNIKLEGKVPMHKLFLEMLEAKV", "assay": "Inverse agonist activity at ERRgamma in human BHT101 cells assessed as increase in TPO mRNA expression at 6 to 12 uM by RT-PCR analysis", "type": "cell-based"}, "[2]": {"assay": "Metabolic stability in mouse liver microsomes assessed as compound remaining at 1 uM after 30 mins in presence of NADPH regeneration system by LC-MS/MS analysis", "type": "ADME, Microsome", "details": "read-out: Stability"}, "[3]": {"assay": "Metabolic stability in rat liver microsomes assessed as compound remaining at 1 uM after 30 mins in presence of NADPH regeneration system by LC-MS/MS analysis", "type": "ADME, Microsome", "details": "read-out: Stability"}, "[4]": {"biological_target": "T1, Estrogen-related receptor gamma (Homo sapiens)", "assay": "Inverse agonist activity at ERRgamma in human BHT101 cells assessed as increase in TSHR mRNA expression at 6 to 12 uM by RT-PCR analysis", "type": "cell-based"}, "CYP3A4": {"biological_target": "CYP3A4 (Homo sapiens, UniProt P08684)", "sequence (P08684 whole entry)": "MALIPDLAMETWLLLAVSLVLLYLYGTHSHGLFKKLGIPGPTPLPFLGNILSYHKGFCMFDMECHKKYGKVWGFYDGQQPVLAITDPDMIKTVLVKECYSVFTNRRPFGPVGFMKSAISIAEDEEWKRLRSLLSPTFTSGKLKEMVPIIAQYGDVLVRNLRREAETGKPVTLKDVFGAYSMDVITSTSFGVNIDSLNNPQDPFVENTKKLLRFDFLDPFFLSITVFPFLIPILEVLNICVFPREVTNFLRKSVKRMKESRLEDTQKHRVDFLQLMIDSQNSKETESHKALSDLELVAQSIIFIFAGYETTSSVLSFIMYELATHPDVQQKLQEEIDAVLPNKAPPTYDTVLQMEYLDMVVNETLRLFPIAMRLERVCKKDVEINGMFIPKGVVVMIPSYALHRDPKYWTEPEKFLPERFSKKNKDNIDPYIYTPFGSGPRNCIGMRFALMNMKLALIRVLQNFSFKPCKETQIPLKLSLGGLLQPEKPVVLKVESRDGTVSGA", "assay": "Inhibition of CYP3A4 in human liver microsomes assessed as reduction in midazolam 1-hydroxylase activity at 10 uM preincubated for 5 mins followed by NADPH addition and measured after 15 mins by LC-MS/MS analysis relative to control", "type": "ADME", "details": "probe midazolam (1-hydroxylation)"}, "[5]": {"biological_target": "T1, Estrogen-related receptor gamma (Homo sapiens)", "assay": "Inverse agonist activity at ERRgamma in human CAL62 cells assessed as increase in NIS mRNA expression at 6 to 12 uM by RT-PCR analysis", "type": "cell-based"}, "[6]": {"biological_target": "T1, Estrogen-related receptor gamma (Homo sapiens)", "assay": "Inverse agonist activity at ERRgamma in human CAL62 cells assessed as increase in TSHR mRNA expression at 6 to 12 uM by RT-PCR analysis", "type": "cell-based"}, "[7]": {"assay": "Effective permeability of the compound at 10 uM after 5 hrs by PAMPA", "type": "ADME", "details": "read-out: Peff"}, "[8]": {"assay": "Metabolic stability in dog liver microsomes assessed as compound remaining at 1 uM after 30 mins in presence of NADPH regeneration system by LC-MS/MS analysis", "type": "ADME, Canis lupus familiaris, Microsome", "details": "read-out: Stability"}, "[9]": {"biological_target": "T1, Estrogen-related receptor gamma (Homo sapiens)", "assay": "Inverse agonist activity at ERRgamma in human BHT101 cells assessed as restoration of sodium iodide symporter function by measuring increase in radioiodide avidity at 6 to 12 uM after 24 hrs by gamma counting analysis based [125-I]-iodide uptake assay", "type": "cell-based"}, "CYP1A2": {"biological_target": "T2, CYP1A2 (Homo sapiens, UniProt P05177)", "T2 sequence (P05177 whole entry)": "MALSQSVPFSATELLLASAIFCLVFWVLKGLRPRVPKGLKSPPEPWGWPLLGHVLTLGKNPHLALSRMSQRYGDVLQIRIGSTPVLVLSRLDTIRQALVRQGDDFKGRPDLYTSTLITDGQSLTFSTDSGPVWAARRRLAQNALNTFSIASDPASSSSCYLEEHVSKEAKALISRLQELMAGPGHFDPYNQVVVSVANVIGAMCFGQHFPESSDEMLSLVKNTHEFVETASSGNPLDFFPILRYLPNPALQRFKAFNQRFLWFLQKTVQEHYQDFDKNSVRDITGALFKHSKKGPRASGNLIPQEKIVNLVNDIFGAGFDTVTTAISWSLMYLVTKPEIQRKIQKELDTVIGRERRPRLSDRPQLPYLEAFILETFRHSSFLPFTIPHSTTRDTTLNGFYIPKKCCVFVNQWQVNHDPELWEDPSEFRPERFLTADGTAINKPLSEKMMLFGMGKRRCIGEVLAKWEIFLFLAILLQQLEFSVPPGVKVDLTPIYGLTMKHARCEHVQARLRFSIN", "assay": "Inhibition of CYP1A2 in human liver microsomes assessed as reduction in phenacetin O-deethylase activity at 10 uM preincubated for 5 mins followed by NADPH addition and measured after 15 mins by LC-MS/MS analysis relative to control", "type": "ADME", "details": "probe phenacetin (O-deethylation)"}, "CYP2C19": {"biological_target": "CYP2C19 (Homo sapiens, UniProt P33261)", "sequence (P33261 whole entry)": "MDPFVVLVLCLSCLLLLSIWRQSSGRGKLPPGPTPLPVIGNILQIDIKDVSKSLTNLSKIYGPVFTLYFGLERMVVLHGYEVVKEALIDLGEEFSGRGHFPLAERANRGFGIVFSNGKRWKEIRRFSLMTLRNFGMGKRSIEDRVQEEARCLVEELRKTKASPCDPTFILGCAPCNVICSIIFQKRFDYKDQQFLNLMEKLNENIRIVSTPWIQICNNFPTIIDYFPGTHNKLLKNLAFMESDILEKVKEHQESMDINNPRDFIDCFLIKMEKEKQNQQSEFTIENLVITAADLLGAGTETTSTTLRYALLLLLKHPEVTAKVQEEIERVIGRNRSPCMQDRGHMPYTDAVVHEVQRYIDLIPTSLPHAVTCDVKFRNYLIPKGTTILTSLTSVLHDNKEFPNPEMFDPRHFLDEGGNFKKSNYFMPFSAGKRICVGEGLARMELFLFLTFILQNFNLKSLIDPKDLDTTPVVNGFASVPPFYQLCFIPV", "assay": "Inhibition of CYP2C19 in human liver microsomes assessed as reduction in S-mephenytoin 4-hydroxylase activity at 10 uM preincubated for 5 mins followed by NADPH addition and measured after 15 mins by LC-MS/MS analysis relative to control", "type": "ADME", "details": "probe S-mephenytoin (4-hydroxylation)"}, "[10]": {"assay": "Genotoxicity in Salmonella typhimurium at 2 mM by mini Ames test", "type": "toxicity", "details": "salmonella enterica subsp. enterica serovar typhimurium, 2000 µM"}, "[11]": {"biological_target": "T1, Estrogen-related receptor gamma (Homo sapiens)", "assay": "Inverse agonist activity at ERRgamma in human CAL62 cells assessed as increase in TPO mRNA expression at 6 to 12 uM by RT-PCR analysis", "type": "cell-based"}, "[12]": {"assay": "AUC (0 to infinity) in Sprague-Dawley rat at 1 mg/kg, iv by LC-MS/MS analysis", "type": "ADME, organism-based", "parameters": "dose 1 mg/kg, time infinity, route intravenous", "details": "in vivo"}, "[13]": {"biological_target": "T1, Estrogen-related receptor gamma (Homo sapiens)", "assay": "Inverse agonist activity at ERRgamma in human CAL62 cells assessed as restoration of sodium iodide symporter function by measuring increase in radioiodide avidity at 6 to 12 uM after 24 hrs by gamma counting analysis based [125-I]-iodide uptake assay", "type": "cell-based"}, "[14]": {"assay": "Tmax in Sprague-Dawley rat at 9 to 10 mg/kg, po via gavage by LC-MS/MS analysis", "type": "ADME, organism-based", "details": "in vivo"}, "BHT-101": {"tested_on": "BHT-101", "assay": "Reduction in colony formation in human BHT101 cells at 6 uM after 24 hrs by crystal violet-based assay", "type": "ADME, cell-based", "details": "bht-101, 24 h"}, "[15]": {"biological_target": "T1, Estrogen-related receptor gamma (Homo sapiens)", "assay": "Inverse agonist activity at ERRgamma in human BHT101 cells assessed as increase in NIS mRNA expression at 6 to 12 uM by RT-PCR analysis", "type": "cell-based"}, "in vivo": {"assay": "in vivo", "details": "Sprague-Dawley, rat, iv, 1 mg/kg"}, "[16]": {"biological_target": "T1, Estrogen-related receptor gamma (Homo sapiens)", "assay": "Inverse agonist activity at ERRgamma in human BHT101 cells assessed as restoration of sodium iodide symporter function by measuring increase in radioiodide avidity at 6 to 12 uM in presence of NIS inhibitor KClO4 after 24 hrs by gamma counting analysis based [125-I]-iodide uptake assay", "type": "cell-based"}, "[17]": {"assay": "Potentiation of radio-iodine avidity in human CAL62 cells xenografted mouse assessed as increase in radio-iodine accumulation in tumor at 200 mg/kg, po dosed once daily for 6 days followed by 50 uCi 124-iodine dosing and measured after 2 hrs by PET/CT imaging analysis", "type": "ADME, organism-based, Neoplasm", "details": "in vivo"}, "CAL-62": {"tested_on": "CAL-62", "assay": "Reduction in colony formation in human CAL62 cells at 6 uM after 24 hrs by crystal violet-based assay", "type": "ADME, cell-based", "details": "cal-62, 24 h"}, "[18]": {"biological_target": "T1, Estrogen-related receptor gamma (Homo sapiens)", "assay": "Inverse agonist activity at ERRgamma in human CAL62 cells assessed as restoration of sodium iodide symporter function by measuring increase in radioiodide avidity at 6 to 12 uM in presence of NIS inhibitor KClO4 after 24 hrs by gamma counting analysis based [125-I]-iodide uptake assay", "type": "cell-based"}, "[19]": {"assay": "AUC (0 to infinity) in Sprague-Dawley rat at 9 to 10 mg/kg, po via gavage by LC-MS/MS analysis", "type": "ADME, organism-based", "details": "in vivo"}, "[20]": {"biological_target": "T1, Estrogen-related receptor gamma (Homo sapiens)", "assay": "Inverse agonist activity at ERRgamma in human CAL62 cells assessed as increase in TG mRNA expression at 6 to 12 uM by RT-PCR analysis", "type": "cell-based"}, "[21]": {"biological_target": "T1, Estrogen-related receptor gamma (Homo sapiens)", "assay": "Inverse agonist activity at ERRgamma in human BHT101 cells assessed as increase in TG mRNA expression at 6 to 12 uM by RT-PCR analysis", "type": "cell-based"}, "[22]": {"assay": "Metabolic stability in human liver microsomes assessed as compound remaining at 1 uM after 30 mins in presence of NADPH regeneration system by LC-MS/MS analysis", "type": "ADME, Microsome", "details": "read-out: Stability"}, "CYP2D6": {"biological_target": "CYP2D6 (Homo sapiens, UniProt P10635)", "sequence (P10635 whole entry)": "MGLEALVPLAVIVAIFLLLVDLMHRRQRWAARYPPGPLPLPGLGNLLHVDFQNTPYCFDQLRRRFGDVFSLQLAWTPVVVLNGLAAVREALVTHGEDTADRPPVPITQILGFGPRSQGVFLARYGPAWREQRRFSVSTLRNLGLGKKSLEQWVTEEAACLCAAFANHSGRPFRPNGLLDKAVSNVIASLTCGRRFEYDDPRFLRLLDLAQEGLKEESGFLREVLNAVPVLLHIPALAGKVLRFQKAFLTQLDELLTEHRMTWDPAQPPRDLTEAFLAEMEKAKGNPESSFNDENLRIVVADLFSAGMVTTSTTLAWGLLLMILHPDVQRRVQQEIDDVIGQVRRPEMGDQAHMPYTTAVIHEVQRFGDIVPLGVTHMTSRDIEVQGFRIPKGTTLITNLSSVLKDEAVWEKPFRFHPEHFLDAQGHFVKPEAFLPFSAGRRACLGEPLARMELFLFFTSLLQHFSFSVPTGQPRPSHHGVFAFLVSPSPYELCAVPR", "assay": "Inhibition of CYP2D6 in human liver microsomes assessed as reduction in dextromethorphan O-demethylase activity at 10 uM preincubated for 5 mins followed by NADPH addition and measured after 15 mins by LC-MS/MS analysis relative to control", "type": "ADME", "details": "probe dextromethorphan (O-demethylation)"}}, "note": "The source made the active and inactive calls. The rule behind the calls is not given here.", "data": [{"smiles": "CC(C)N1CCN(c2ccc(/C(=C(/CCCO)c3ccccc3)c3cccc(O)c3)cc2)CC1.Cl.Cl", "values": [{"measurement": "inhibition at 0.25 h, 10 µM", "setting": "CYP2C9", "value": 24.1, "unit": "%"}, {"measurement": "Activity", "setting": "[1]", "value": "Active"}, {"measurement": "remaining at 0.5 h, 1 µM", "setting": "[2]", "value": 26.9, "unit": "%"}, {"measurement": "remaining at 0.5 h, 1 µM", "setting": "[3]", "value": 54.9, "unit": "%"}, {"measurement": "Activity", "setting": "[4]", "value": "Active"}, {"measurement": "inhibition at 0.25 h, 10 µM", "setting": "CYP3A4", "value": 53.3, "unit": "%"}, {"measurement": "Activity", "setting": "[5]", "value": "Dose-dependent effect"}, {"measurement": "Activity", "setting": "[6]", "value": "Dose-dependent effect"}, {"measurement": "Papp at 5 h, 10 µM", "setting": "[7]", "value": 1.29, "unit": "×10⁻⁶ cm/s"}, {"measurement": "remaining at 0.5 h, 1 µM", "setting": "[8]", "value": 61.2, "unit": "%"}, {"measurement": "Activity", "setting": "[9]", "value": "Active"}, {"measurement": "inhibition at 0.25 h, 10 µM", "setting": "CYP1A2", "value": 0, "unit": "%"}, {"measurement": "inhibition at 0.25 h, 10 µM", "setting": "CYP2C19", "value": 0, "unit": "%"}, {"measurement": "Activity", "setting": "[10]", "value": "Non-Toxic"}, {"measurement": "Activity", "setting": "[11]", "value": "Dose-dependent effect"}, {"measurement": "AUC(0-inf)", "setting": "[12]", "value": 1, "unit": "µM·h"}, {"measurement": "Activity", "setting": "[13]", "value": "Active"}, {"measurement": "Tmax", "setting": "[14]", "value": 1.7, "unit": "h"}, {"measurement": "Activity", "setting": "BHT-101", "value": "Non-Toxic"}, {"measurement": "Activity", "setting": "[15]", "value": "Active"}, {"measurement": "AUC", "setting": "in vivo", "value": 0.99, "unit": "µM·h"}, {"measurement": "Activity", "setting": "[16]", "value": "inactive"}, {"measurement": "Activity", "setting": "[17]", "value": "Active"}, {"measurement": "Activity", "setting": "CAL-62", "value": "Non-Toxic"}, {"measurement": "Activity", "setting": "[18]", "value": "inactive"}, {"measurement": "AUC(0-inf)", "setting": "[19]", "value": 4.71, "unit": "µM·h"}, {"measurement": "Activity", "setting": "[20]", "value": "Dose-dependent effect"}, {"measurement": "Activity", "setting": "[21]", "value": "Active"}, {"measurement": "remaining at 0.5 h, 1 µM", "setting": "[22]", "value": 65.4, "unit": "%"}, {"measurement": "inhibition at 0.25 h, 10 µM", "setting": "CYP2D6", "value": 34, "unit": "%"}]}]}
